In publication PMC7932537, “Quantitative profiling of protease specificity” (PLoS Computational Biology, 2021):

What was measured:
MMP-2 [1] = assay: Substrate phage display with NGS: relative probability (RP) of P3-P1' tetramer clusters; assay type: biochemical, human; details: for MMP2 relative probability (RP): MMP2 tetramers from unique substrates, unrounded values
MMP-9 [2] = assay: as above; assay type: biochemical, human; details: for corresponding MMP9 relative probability (RP): MMP2 tetramers from unique substrates, RP of same tetramer for MMP9; for relative_probability: tetramer clusters unique to the MMP-9 selectome, MMP-9 RP
MMP-2 [3] = target: T1, MMP-2 (Homo sapiens, UniProt P08253); assay: K(obs) of individual phage substrates (set of 1369); assay type: biochemical; details: MMP2
T1 sequence (P08253 110-660): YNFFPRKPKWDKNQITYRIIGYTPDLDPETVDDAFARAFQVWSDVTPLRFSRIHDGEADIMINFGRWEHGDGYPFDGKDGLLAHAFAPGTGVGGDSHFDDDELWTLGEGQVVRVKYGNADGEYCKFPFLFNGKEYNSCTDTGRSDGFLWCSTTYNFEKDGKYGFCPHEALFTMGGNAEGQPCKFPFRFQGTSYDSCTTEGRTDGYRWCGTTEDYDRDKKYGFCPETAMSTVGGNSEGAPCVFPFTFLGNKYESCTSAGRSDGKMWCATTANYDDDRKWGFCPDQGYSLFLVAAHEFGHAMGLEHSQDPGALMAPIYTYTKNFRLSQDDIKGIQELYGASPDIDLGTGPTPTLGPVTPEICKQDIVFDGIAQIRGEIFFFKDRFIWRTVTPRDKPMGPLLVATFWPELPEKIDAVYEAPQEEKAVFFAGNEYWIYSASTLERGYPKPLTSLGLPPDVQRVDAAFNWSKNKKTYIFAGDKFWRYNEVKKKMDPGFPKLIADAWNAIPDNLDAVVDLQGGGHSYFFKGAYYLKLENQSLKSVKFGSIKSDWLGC

MMP-9 [4] = target: MMP-9 (Homo sapiens, UniProt P14780); assay: as above; assay type: biochemical; details: MMP9
Sequence of MMP-9 (Homo sapiens, UniProt P14780) (P14780 94-707): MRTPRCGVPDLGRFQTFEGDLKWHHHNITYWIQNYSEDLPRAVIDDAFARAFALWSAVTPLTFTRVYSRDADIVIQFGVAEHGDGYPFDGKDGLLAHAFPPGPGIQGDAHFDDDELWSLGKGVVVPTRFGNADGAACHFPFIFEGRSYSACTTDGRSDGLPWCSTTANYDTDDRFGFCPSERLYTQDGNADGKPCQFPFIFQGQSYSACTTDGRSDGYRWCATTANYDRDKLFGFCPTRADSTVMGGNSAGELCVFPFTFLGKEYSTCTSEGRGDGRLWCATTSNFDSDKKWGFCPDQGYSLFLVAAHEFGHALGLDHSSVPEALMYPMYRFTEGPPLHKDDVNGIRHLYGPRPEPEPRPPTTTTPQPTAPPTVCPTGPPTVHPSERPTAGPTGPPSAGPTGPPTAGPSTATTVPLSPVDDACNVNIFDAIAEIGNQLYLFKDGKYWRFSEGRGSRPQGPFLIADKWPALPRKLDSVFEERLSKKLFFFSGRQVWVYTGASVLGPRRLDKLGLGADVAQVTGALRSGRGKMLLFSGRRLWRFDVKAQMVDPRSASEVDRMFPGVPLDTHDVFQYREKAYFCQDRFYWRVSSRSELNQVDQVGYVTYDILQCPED

[5] = RP of matching tetramer, common MMP2-9 selectome
[6] = MMP9, RP of the P3-P1' tetramer matching the MS detected cleavage, RP above 4.7, substrate phage display with NGS
[7] = RP of matching tetramer, common MMP2-9 selectome, RP above KL threshold
[8] = RP according to MMP2, P3-P1' tetramer of unique physiologic MMP2 substrates from MEROPS
[9] = RP of the P3-P1' tetramer cluster contained in the hexamer, 200 nM MMP-2, 2 h, 37°C, two rounds of selection
[10] = MMP9, RP of the P3-P1' tetramer contained in the hexamer substrate (substrate phage display, NGS)
[11] = RP of the P3-P1' tetramer, MMP2 substrate phage display/NGS, tetramers of physiologic MEROPS substrates common to MMP2 and MMP9
[12] = RP of the P3-P1' tetramer, MMP9 substrate phage display/NGS, tetramers of physiologic MEROPS substrates common to MMP2 and MMP9
[13] = RP according to MMP9, P3-P1' tetramer of unique physiologic MMP9 substrates from MEROPS
[14] = tetramer projected onto MMP-9 cleavage sites determined by Prudova et al. (2010)
[15] = RP of the P3-P1' tetramer in MMP-9 substrate phage display/NGS, tetramer annotation of MMP-9 cleavage sites (octamers P4-P4') collected in MEROPS database
[16] = rank of the P3-P1' tetramer by RP in MMP-9 substrate phage display/NGS, tetramer annotation of MMP-9 cleavage sites (octamers P4-P4') collected in MEROPS database
[17] = tetramer probability in MMP9 set / naive library, 200 nM protease, 2 h, 37°C
[18] = tetramer annotation of MMP-9 cleavage sites in physiologic substrates from MEROPS
[19] = MMP2, RP of the P3-P1' tetramer contained in the substrate (substrate phage display with NGS)
[20] = individual phage substrates, set of 1369 peptides, cleavage position marked by hyphen in sequence
[21] = individual phage substrates, set of 1369 peptides, hyphen in sequence marks cleavage position
[22] = MMP2, RP of the P3-P1' tetramer contained in the substrate
[23] = individual phage substrate of the set of 1369 peptides, cleavage position marked by '-'
[24] = individual phage substrate of the set of 1369 peptides, dash in the sequence marks the cleavage position

LFGL
relative probability (RP) (acc.to MMP2) (MMP-2 [1]; MMP2, RP of matching P3-P1' tetramer, common set of MMP2-9 selectome, RP above KL threshold): 12.87
relative probability (RP) of matching tetramer (MMP-2 [1]; P3-P1' tetramer matching the MS detected MMP2 cleavage sequence, RP_above_4.5): 12.87
relative probability (RP) (acc.to MMP2) (MMP-2 [1]; [5]): 12.87
relative probability (RP) (acc.to MMP9) (MMP-9 [2]; MMP9, RP of matching P3-P1' tetramer, common set of MMP2-9 selectome): 14.17
relative probability (RP) (MMP-9 [2]; [6]): 14.17
relative probability (RP) (acc.to MMP9) (MMP-9 [2]; [7]): 14.17

VGEY
MMP2 relative probability (RP) (MMP-2 [1]): 13.6759
Relative probability (RP) rank (MMP-2 [1]; [8]): 3547
relative probability (RP) (MMP-2 [1]; [8]): 13.68
corresponding MMP9 relative probability (RP) (MMP-9 [2]): 0.1188

YSNI
avg_RP (MMP-2 [1]; MMP2 - no binning, average relative probability of the P3-P1' tetramer, redundant tetramers have been averaged out): 14.6847
MMP2 relative probability (RP) (MMP-2 [1]): 14.6847
Relative probability (RP) rank (MMP-2 [1]; [8]): 3195
relative probability (RP) (MMP-2 [1]; [8]): 14.68
corresponding MMP9 relative probability (RP) (MMP-9 [2]): 0.05486

TMNM
relative probability (RP) (MMP-9 [2]; [6]): 6.67

LSPFGQ
relative probability (RP) (MMP-2 [1]; [9]): 16.8686
relative probability (RP) (MMP-9 [2]; [10]): 36.0266

PEGLQG
relative probability (RP) (MMP-2 [1]; [9]): 29.5031
relative probability (RP) (MMP-9 [2]; [10]): 39.4116

PTPKAL
relative probability (RP) (MMP-2 [1]; [9]): 34.4858
relative probability (RP) (MMP-9 [2]; [10]): 48.3581

PTGV
relative probability (RP) (acc.to MMP2) (MMP-2 [1]; [11]): 13.32
relative probability (RP) (acc.to MMP9) (MMP-9 [2]; [12]): 11.14

VPQEWR
relative probability (RP) (MMP-2 [1]; [9]): 10.5981
relative probability (RP) (MMP-9 [2]; [10]): 10.1914

PKKL
relative probability (RP) (acc.to MMP2) (MMP-2 [1]; [11]): 8.1
relative probability (RP) (acc.to MMP9) (MMP-9 [2]; [12]): 23.95

PMFI
relative probability (RP) (acc.to MMP2) (MMP-2 [1]; [5]): 8.26
relative probability (RP) (MMP-9 [2]; [6]): 35.87
relative probability (RP) (acc.to MMP9) (MMP-9 [2]; [7]): 35.87

PDHL
relative probability (RP) (MMP-9 [2]; [6]): 13.06

PAPNSL
relative probability (RP) (MMP-2 [1]; [9]): 24.6338
relative probability (RP) (MMP-9 [2]; [10]): 34.9686

PPGE
relative probability (RP) (acc.to MMP2) (MMP-2 [1]; [11]): 0
relative probability (RP) (acc.to MMP9) (MMP-9 [2]; [12]): 0.11

GVMQ
Relative probability (RP) rank (MMP-9 [2]; [13]): 91467
relative probability (RP) (MMP-9 [2]; [13]): 0

PKAS [P3-P1' tetramer cluster]
relative probability (RP) (MMP-9 [2]; [14]): 25.84

PWPH
relative probability (RP) (MMP-9 [2]; [6]): 15.08

PRGI [P3-P1' tetramer cluster]
relative probability (RP) (MMP-9 [2]; [14]): 47.2

PFSV [P3-P1' tetramer cluster]
relative probability (RP) (MMP-9 [2]; [14]): 31.92

PAPL [P3-P1' tetramer cluster]
relative probability (RP) (MMP-9 [2]; [14]): 46.24

AAAY
relative probability (RP) (MMP-9 [2]; [15]): 22.04
Relative probability (RP) rank (MMP-9 [2]; [16]): 2070

VGSL [P3-P1' tetramer cluster]
relative probability (RP) (MMP-9 [2]; [14]): 7.47

PMWM [P3-P1' tetramer cluster]
relative probability (RP) (MMP-9 [2]; [17]): 52.3808

PFPL [P3-P1' tetramer cluster]
relative probability (RP) (MMP-9 [2]; [14]): 49.54

PFAV [P3-P1' tetramer cluster]
relative probability (RP) (MMP-9 [2]; [14]): 43.58

PVGI [P3-P1' tetramer cluster]
relative probability (RP) (MMP-9 [2]; [14]): 46.04

FFPF
relative probability (RP) (MMP-9 [2]; [18]): 0.33

IRYV
relative probability (RP) (MMP-9 [2]; [6]): 10.4

PKGE [P3-P1' tetramer cluster]
relative probability (RP) (MMP-9 [2]; [14]): 0

PVGV [P3-P1' tetramer cluster]
relative probability (RP) (MMP-9 [2]; [14]): 34.33

PWMI [P3-P1' tetramer cluster]
relative_probability (MMP-9 [2]): 41.91

PWMM [P3-P1' tetramer cluster]
relative_probability (MMP-9 [2]): 46.92

PWWM [P3-P1' tetramer cluster]
relative_probability (MMP-9 [2]): 45.99

AKRF
relative probability (RP) (MMP-9 [2]; [18]): 0.43

PSGI [P3-P1' tetramer cluster]
relative probability (RP) (MMP-9 [2]; [14]): 45.03

IIGL
Relative probability (RP) rank (MMP-9 [2]; [13]): 15777
relative probability (RP) (MMP-9 [2]; [13]): 0.98

AAAA
relative probability (RP) (MMP-9 [2]; [15]): 0.34
Relative probability (RP) rank (MMP-9 [2]; [16]): 31285

PFKI
relative probability (RP) (MMP-9 [2]; [6]): 34.84

ITPL [P3-P1' tetramer cluster]
relative probability (RP) (MMP-9 [2]; [14]): 0.92

PYAI [P3-P1' tetramer cluster]
relative probability (RP) (MMP-9 [2]; [17]): 51.7522

PVPQ [P3-P1' tetramer cluster]
relative probability (RP) (MMP-9 [2]; [14]): 29.84

PWAQ [P3-P1' tetramer cluster]
relative_probability (MMP-9 [2]): 41.83

IYYI
relative probability (RP) (MMP-9 [2]; [6]): 14.54

PWWI [P3-P1' tetramer cluster]
relative_probability (MMP-9 [2]): 43.44

PMPL [P3-P1' tetramer cluster]
relative probability (RP) (MMP-9 [2]; [17]): 51.2509

PFAS
relative probability (RP) (MMP-9 [2]; [6]): 24.05

PRLV
relative probability (RP) (MMP-9 [2]; [6]): 7.12

AAAK
relative probability (RP) (MMP-9 [2]; [15]): 0
Relative probability (RP) rank (MMP-9 [2]; [16]): 91823

TITG
Relative probability (RP) rank (MMP-9 [2]; [13]): 47886
relative probability (RP) (MMP-9 [2]; [13]): 0.16

PMAA
relative probability (RP) (MMP-9 [2]; [6]): 16.94

GSFRG-LRTAS
relative probability (RP) (MMP-2 [1]; [19]): 7.475
Kobs (MMP-2 [3]; [20]): 874.197 M⁻¹ s⁻¹
Kobs (MMP-9 [4]; [21]): 451.441 M⁻¹ s⁻¹

GWAYN-MRTAS
relative probability (RP) (MMP-2 [1]; [19]): 10.8408
Kobs (MMP-2 [3]; [20]): 292.668 M⁻¹ s⁻¹
Kobs (MMP-9 [4]; [21]): 2280.5 M⁻¹ s⁻¹

IPAFN-LTASG
relative probability (RP) (MMP-2 [1]; [19]): 16.2959
Kobs (MMP-2 [3]; [20]): 10866.7 M⁻¹ s⁻¹
Kobs (MMP-9 [4]; [21]): 12792.1 M⁻¹ s⁻¹

PHTAS-LTASG
relative probability (RP) (MMP-2 [1]; [22]): 17.8872
Kobs (MMP-2 [3]; [23]): 12792.1 M⁻¹ s⁻¹
Kobs (MMP-9 [4]; [24]): 0 M⁻¹ s⁻¹

SGYRS-LTLTA
relative probability (RP) (MMP-2 [1]; [19]): 1.506
Kobs (MMP-2 [3]; [20]): 292.668 M⁻¹ s⁻¹
Kobs (MMP-9 [4]; [21]): 27.918 M⁻¹ s⁻¹

SGALH-LKATA
relative probability (RP) (MMP-2 [1]; [19]): 14.6488
Kobs (MMP-2 [3]; [20]): 4205.91 M⁻¹ s⁻¹
Kobs (MMP-9 [4]; [21]): 6688.74 M⁻¹ s⁻¹

SGQRG-IYATA
relative probability (RP) (MMP-2 [1]; [22]): 7.484
Kobs (MMP-2 [3]; [23]): 2157.02 M⁻¹ s⁻¹
Kobs (MMP-9 [4]; [24]): 3344.37 M⁻¹ s⁻¹

SGPRA-LKGTA
relative probability (RP) (MMP-2 [1]; [22]): 35.2345
Kobs (MMP-2 [3]; [23]): 12792.1 M⁻¹ s⁻¹
Kobs (MMP-9 [4]; [24]): 12792.1 M⁻¹ s⁻¹

SQPTG-LTASG
relative probability (RP) (MMP-2 [1]; [19]): 33.1098
Kobs (MMP-2 [3]; [20]): 12792.1 M⁻¹ s⁻¹
Kobs (MMP-9 [4]; [21]): 12792.1 M⁻¹ s⁻¹

SFPNP-LTASG
relative probability (RP) (MMP-2 [1]; [22]): 23.6266
Kobs (MMP-2 [3]; [23]): 5667.28 M⁻¹ s⁻¹
Kobs (MMP-9 [4]; [24]): 2545.25 M⁻¹ s⁻¹

PRVWL-LTASG
relative probability (RP) (MMP-2 [1]; [19]): 0.5351
Kobs (MMP-2 [3]; [20]): 3165.09 M⁻¹ s⁻¹
Kobs (MMP-9 [4]; [21]): 2687.73 M⁻¹ s⁻¹

RTMLH-MTASG
relative probability (RP) (MMP-2 [1]; [19]): 4.713
Kobs (MMP-2 [3]; [20]): 619.843 M⁻¹ s⁻¹
Kobs (MMP-9 [4]; [21]): 261.974 M⁻¹ s⁻¹
